According to ChEMBL document CHEMBL4673282, “Identification of a New Heterocyclic Scaffold for Inhibitors of the Polo-Box Domain of Polo-like Kinase 1” (J Med Chem, 2020):
In brackets after ≈: the same amount, converted by molar mass. Activity calls are given as the source filed them. No cut-off for these calls is given here.

Experiments:
[1] = target: T1, Muscarinic acetylcholine receptor M4 (Homo sapiens, UniProt P08173); test: Inhibition of M4 (unknown origin) at 10 uM relative to control
T1 sequence (P08173 whole entry): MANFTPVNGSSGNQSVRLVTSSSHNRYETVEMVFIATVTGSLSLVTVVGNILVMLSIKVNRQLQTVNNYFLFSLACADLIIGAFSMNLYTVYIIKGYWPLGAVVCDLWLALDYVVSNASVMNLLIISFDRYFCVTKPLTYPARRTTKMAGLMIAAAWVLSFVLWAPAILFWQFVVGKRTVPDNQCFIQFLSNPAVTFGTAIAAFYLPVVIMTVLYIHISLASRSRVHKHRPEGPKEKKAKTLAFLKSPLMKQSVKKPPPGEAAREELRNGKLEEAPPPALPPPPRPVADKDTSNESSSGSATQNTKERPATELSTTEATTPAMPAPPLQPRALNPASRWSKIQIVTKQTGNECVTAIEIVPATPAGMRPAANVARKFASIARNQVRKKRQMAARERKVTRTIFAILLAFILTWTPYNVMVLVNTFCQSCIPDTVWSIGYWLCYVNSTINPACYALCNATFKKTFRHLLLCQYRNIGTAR

[2] = in vitro; conditions: PAMPA
Description: Permeability of the compound by PAMPA

[3] = target: Muscarinic acetylcholine receptor M3 (Homo sapiens, UniProt P20309); test: Inhibition of M3 (unknown origin) at 10 uM relative to control
Muscarinic acetylcholine receptor M3, sequence (P20309 whole entry): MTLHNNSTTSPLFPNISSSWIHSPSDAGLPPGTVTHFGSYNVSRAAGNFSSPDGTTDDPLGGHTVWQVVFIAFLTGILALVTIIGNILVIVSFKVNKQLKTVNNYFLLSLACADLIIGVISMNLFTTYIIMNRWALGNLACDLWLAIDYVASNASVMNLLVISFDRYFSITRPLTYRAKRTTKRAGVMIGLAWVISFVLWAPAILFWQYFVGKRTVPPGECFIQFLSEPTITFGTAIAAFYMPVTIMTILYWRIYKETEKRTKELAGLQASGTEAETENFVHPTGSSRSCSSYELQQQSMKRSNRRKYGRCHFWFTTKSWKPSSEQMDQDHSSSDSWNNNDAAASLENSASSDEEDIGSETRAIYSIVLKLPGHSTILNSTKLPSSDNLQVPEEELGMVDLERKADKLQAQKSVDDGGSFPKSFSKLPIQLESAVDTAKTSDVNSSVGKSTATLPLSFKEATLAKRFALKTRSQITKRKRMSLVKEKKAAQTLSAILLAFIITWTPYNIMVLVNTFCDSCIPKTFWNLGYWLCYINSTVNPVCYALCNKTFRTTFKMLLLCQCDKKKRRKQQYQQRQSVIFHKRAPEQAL

[4] = Half life in rat liver microsomes at 1 uM measured up to 60 mins in presence of NADPH generating system; conditions: 1 h
[5] = Aqueous solubility of compound; format: physicochemical; conditions: buffer
[6] = target: T2, Muscarinic acetylcholine receptor M5 (Homo sapiens, UniProt P08912); test: Inhibition of M5 (unknown origin) at 10 uM relative to control
T2 sequence (P08912 whole entry): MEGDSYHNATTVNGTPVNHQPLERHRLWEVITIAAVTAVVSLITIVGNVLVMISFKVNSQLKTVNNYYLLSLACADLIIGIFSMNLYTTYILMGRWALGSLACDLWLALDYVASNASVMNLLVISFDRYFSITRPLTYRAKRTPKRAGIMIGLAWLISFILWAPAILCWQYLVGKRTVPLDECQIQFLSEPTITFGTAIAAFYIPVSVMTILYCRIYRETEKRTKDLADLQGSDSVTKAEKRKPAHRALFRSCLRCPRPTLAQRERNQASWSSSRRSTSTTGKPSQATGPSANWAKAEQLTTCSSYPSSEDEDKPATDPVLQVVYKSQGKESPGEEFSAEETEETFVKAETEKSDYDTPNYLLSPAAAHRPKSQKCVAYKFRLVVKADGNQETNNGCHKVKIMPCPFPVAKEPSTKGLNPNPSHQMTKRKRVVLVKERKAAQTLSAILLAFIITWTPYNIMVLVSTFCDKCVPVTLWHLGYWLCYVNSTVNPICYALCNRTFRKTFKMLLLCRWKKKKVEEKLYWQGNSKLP

[7] = tested on: HeLa; test: Antiproliferative activity against human HeLa cells assessed as reduction in cell population at 100 uM measured after 3 days by DAPI staining based phase contrast microscopic analysis relative to control; format: functional; parameters: scale not given: the % may be the effect or the level left; conditions: time 3 day
[8] = Drug metabolism in C57BL/6 mouse assessed as demethylation in serum at 20 mg/kg, ip measured after 15 to 240 mins by UPLC-ESI-QTOFMS analysis; format: ADME, organism-based; conditions: in vivo, time 15-240 min
[9] = tested on: HeLa; test: Induction of mitotic arrest in human HeLa cells assessed as rounded cells with apoptosis at 100 uM measured after 12 hrs by DAPI staining based phase contrast microscopic analysis; format: functional, cell-based
[10] = target: T3, Serine/threonine-protein kinase PLK1 (Homo sapiens, UniProt P53350); test: Inhibition of Plk1 PBD in human HeLa cells assessed as reduction in plk1 localization to kinetochores at 100 uM measured after 12 hrs by immunostaining based assay; format: cell-based
T3 sequence (P53350 whole entry): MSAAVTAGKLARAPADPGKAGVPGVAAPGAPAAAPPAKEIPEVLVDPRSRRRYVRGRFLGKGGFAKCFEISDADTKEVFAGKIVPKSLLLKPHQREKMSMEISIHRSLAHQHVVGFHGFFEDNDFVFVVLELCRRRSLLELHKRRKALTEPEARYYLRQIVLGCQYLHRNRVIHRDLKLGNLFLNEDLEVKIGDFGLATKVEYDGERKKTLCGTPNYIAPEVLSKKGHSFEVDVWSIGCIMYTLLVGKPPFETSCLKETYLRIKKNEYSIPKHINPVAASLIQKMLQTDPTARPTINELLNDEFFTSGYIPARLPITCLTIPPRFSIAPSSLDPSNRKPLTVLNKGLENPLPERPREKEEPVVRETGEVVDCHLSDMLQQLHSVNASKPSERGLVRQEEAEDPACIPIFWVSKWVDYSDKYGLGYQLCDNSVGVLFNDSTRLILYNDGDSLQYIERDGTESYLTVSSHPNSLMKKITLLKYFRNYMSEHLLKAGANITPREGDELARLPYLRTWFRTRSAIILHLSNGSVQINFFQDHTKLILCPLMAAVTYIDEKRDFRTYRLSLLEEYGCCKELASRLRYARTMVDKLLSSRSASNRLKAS

[11] = Half life in human cytosol; format: ADME, subcellular
[12] = Half life in rat cytosol; format: ADME, subcellular
[13] = target: T3, Serine/threonine-protein kinase PLK1; test: Inhibition of biotin-Ahx-CETFDPPLHSpTAI-NH2 binding to recombinant human full-length HA-EGFP-tagged Plk1 PBD expressed in HEK293A cells preincubated for 30 mins followed by biotin-Ahx-CETFDPPLHSpTAI-NH2 addition and measured after 1 hr by 3,3',5,5'-tetramethylbenzidine substrate based ELISA; format: cell-based, HEK293-A
[14] = tested on: HeLa; test: Induction of mitotic arrest in human HeLa cells assessed as apperance of aberrant chromosomal morphology at 100 uM measured after 12 hrs by DAPI staining based phase contrast microscopic analysis; format: functional, cell-based
[15] = Drug metabolism in C57BL/6 mouse assessed as hydroxylation in serum at 20 mg/kg, ip measured after 15 mins by UPLC-ESI-QTOFMS analysis; format: ADME, organism-based; conditions: in vivo
[16] = Half life in mouse cytosol; format: ADME, subcellular
[17] = target: T3, Serine/threonine-protein kinase PLK1; test: Inhibition of Plk1 PBD in human HeLa cells assessed as reduction in plk1 localization to centrosomes at 100 uM measured after 12 hrs by immunostaining based assay; format: cell-based
[18] = tested on: HeLa; test: Induction of mitotic arrest in human HeLa cells assessed as abnormal spindle morphology at 100 uM measured after 12 hrs by DAPI staining based immunoassay; format: functional, cell-based
[19] = Toxicity in C57BL/6 mouse at 20 mg/kg, ip; format: organism-based; conditions: in vivo
[20] = PAMPA
Description: Permeability of the compound by PAMPA

Question: With NCCCn1c(=O)c2cc(F)ccc2n2c(=S)[nH]nc12 as the compound, how does the inhibition at 10 µM [1] read?
Answer: 73%

Question: What about the Papp [2] of the same compound?
Answer: 168 nm/s

Question: What about the inhibition at 10 µM [3] of the same compound?
Answer: 100%

Question: And the t1/2 [4]?
Answer: > 30 min

Question: What about the solubility [5] of the same compound?
Answer: 0.027 mg/mL (≈ 92 µM)

Question: And the inhibition at 10 µM [6]?
Answer: 84%

Question: Which Activity [7] does the source give for CCCn1c(=O)c2ccccc2n2c(SC)nnc12 here?
Answer: 50%

Question: And the Drug metabolism [8]?
Answer: Metabolite_Detected

Question: And the Activity [9]?
Answer: Active

Question: And the inhibition [10]?
Answer: 50%

Question: And the t1/2 [11]?
Answer: <= 120 min

Question: What about the t1/2 [12] of the same compound?
Answer: <= 120 min

Question: What about the IC50 [13] of the same compound?
Answer: > 50 µM

Question: And the Activity [14]?
Answer: Active

Question: And the Drug metabolism [15]?
Answer: Metabolite_Detected

Question: What about the t1/2 [16] of the same compound?
Answer: <= 120 min

Question: What about the inhibition [17] of the same compound?
Answer: 20%

Question: What about the Activity [18] of the same compound?
Answer: Active

Question: What about the Activity [19] of the same compound?
Answer: Non-Toxic

Question: For C[C@H]1C[C@@H]1n1c(=O)c2cc(F)ccc2n2c(=S)[nH]nc12 (relative stereo), which permeability [20] is on record?
Answer: 188 10^-6 cm/s

Question: What about the t1/2 [4] of the same compound?
Answer: > 30 min

Question: And the solubility [5]?
Answer: 0.0132 mg/mL (≈ 45.5 µM)
